According to publication PMC5218480 (PLoS ONE, 2017):

Test system: MV-4-11 cells
Test: Gene expression microarray analysis (Affymetrix PrimeView) and GSEA
Assay type: cell-based, human
Design: RFU PODN (11730768_x_at) / Fold change /veh PODN (11730768_x_at) / RFU LINC00158 (11744669_a_at) / Fold change /veh LINC00158 (11744669_a_at) / RFU DUSP10 (11751237_a_at) / Fold change /veh DUSP10 (11751237_a_at) / RFU ID3 (11757404_x_at) / Fold change /veh ID3 (11757404_x_at) / RFU PLEKHG5 (11737974_s_at) / Fold change /veh PLEKHG5 (11737974_s_at) / RFU LRRC4B (11730491_at) / Fold change /veh LRRC4B (11730491_at) / RFU GIMAP4 (11747438_a_at) / Fold change /veh GIMAP4 (11747438_a_at) / RFU KRT8 (11758183_x_at) / Fold change /veh KRT8 (11758183_x_at) / RFU CNN1 (11734310_a_at) / Fold change /veh CNN1 (11734310_a_at) / RFU VPS37D (11726825_at) / Fold change /veh VPS37D (11726825_at) / RFU C10orf10 (11716522_x_at) / Fold change /veh C10orf10 (11716522_x_at) / RFU KIR2DL2 /// KIR2DL4 /// KIR2DL5A /// KIR2DL5B /// KIR2DS1 /// KIR2DS2 /// KIR2DS3 /// KIR2DS4 /// KIR3DL3 /// KIR3DL3 /// KIR3DS1 (11738374_at) / Fold change /veh KIR2DL2 /// KIR2DL4 /// KIR2DL5A /// KIR2DL5B /// KIR2DS1 /// KIR2DS2 /// KIR2DS3 /// KIR2DS4 /// KIR3DL3 /// KIR3DL3 /// KIR3DS1 (11738374_at) / RFU C1QL1 (11718748_at) / Fold change /veh C1QL1 (11718748_at) / RFU TMPRSS4 (11747572_a_at) / Fold change /veh TMPRSS4 (11747572_a_at) / RFU HAMP (11756126_x_at) / Fold change /veh HAMP (11756126_x_at) / RFU RNFT2 (11725882_a_at) / Fold change /veh RNFT2 (11725882_a_at) / RFU NR4A2 (11747474_a_at) / Fold change /veh NR4A2 (11747474_a_at) / RFU ABCC12 (11746883_a_at) / Fold change /veh ABCC12 (11746883_a_at) / RFU TMEM136 (11760407_x_at) / Fold change /veh TMEM136 (11760407_x_at) / RFU CLDN22 /// WWC2 (11732394_at) / Fold change /veh CLDN22 /// WWC2 (11732394_at) / RFU HLA-DPB1 (11760878_x_at) / Fold change /veh HLA-DPB1 (11760878_x_at) / RFU SPINT1 (11716480_a_at) / Fold change /veh SPINT1 (11716480_a_at) / RFU GAP43 (11754022_s_at) / Fold change /veh GAP43 (11754022_s_at) / RFU A4GNT (11735810_at) / Fold change /veh A4GNT (11735810_at) / RFU PRB3 (11715151_x_at) / Fold change /veh PRB3 (11715151_x_at) / RFU TUBB4B (11761932_at) / Fold change /veh TUBB4B (11761932_at) / RFU CAPN14 (11732068_a_at) / Fold change /veh CAPN14 (11732068_a_at) / RFU TMCC2 (11721928_a_at) / Fold change /veh TMCC2 (11721928_a_at) / RFU IRGQ (11745062_a_at) / Fold change /veh IRGQ (11745062_a_at) / RFU FAM174B (11720279_a_at) / Fold change /veh FAM174B (11720279_a_at) / RFU TMPRSS4 (11748680_a_at) / Fold change /veh TMPRSS4 (11748680_a_at) / RFU FAM212B (11763350_a_at) / Fold change /veh FAM212B (11763350_a_at) / RFU PLEKHG5 (11743358_a_at) / Fold change /veh PLEKHG5 (11743358_a_at) / RFU ZSCAN30 (11745921_a_at) / Fold change /veh ZSCAN30 (11745921_a_at) / RFU CMKLR1 (11741424_a_at) / Fold change /veh CMKLR1 (11741424_a_at) / RFU LOC101060620 /// MAPK8IP1 (11723275_at) / Fold change /veh LOC101060620 /// MAPK8IP1 (11723275_at) / RFU SPTSSB (11747773_x_at) / Fold change /veh SPTSSB (11747773_x_at) / RFU PRSS12 (11739890_at) / Fold change /veh PRSS12 (11739890_at) / RFU BIN1 (11741810_x_at) / Fold change /veh BIN1 (11741810_x_at) / RFU WNT11 (11732464_a_at) / Fold change /veh WNT11 (11732464_a_at) / RFU C10orf10 (11716521_a_at) / Fold change /veh C10orf10 (11716521_a_at) / RFU C5orf56 (11738089_at) / Fold change /veh C5orf56 (11738089_at) / RFU CYB561 (11721691_x_at) / Fold change /veh CYB561 (11721691_x_at) / RFU ANKRD19P (11752326_a_at) / Fold change /veh ANKRD19P (11752326_a_at) / RFU OR2T12 /// OR2T33 /// OR2T8 (11738714_s_at) / Fold change /veh OR2T12 /// OR2T33 /// OR2T8 (11738714_s_at) / RFU VCAN (11748164_a_at) / Fold change /veh VCAN (11748164_a_at) / RFU JSRP1 (11732532_at) / Fold change /veh JSRP1 (11732532_at) / RFU KRTAP10-11 (11738290_x_at) / Fold change /veh KRTAP10-11 (11738290_x_at) / RFU MYO3A (11730013_a_at) / Fold change /veh MYO3A (11730013_a_at) / RFU EBF3 (11725865_a_at) / Fold change /veh EBF3 (11725865_a_at) / RFU CAMK2N1 (11719241_x_at) / Fold change /veh CAMK2N1 (11719241_x_at) / RFU C5orf56 (11738088_a_at) / Fold change /veh C5orf56 (11738088_a_at) / RFU OLFML3 (11715873_a_at) / Fold change /veh OLFML3 (11715873_a_at) / RFU LOC100653217 /// NTM (11731650_a_at) / Fold change /veh LOC100653217 /// NTM (11731650_a_at) / RFU MAPK11 (11762145_a_at) / Fold change /veh MAPK11 (11762145_a_at) / RFU FIZ1 (11724087_x_at) / Fold change /veh FIZ1 (11724087_x_at) / RFU OASL (11726364_x_at) / Fold change /veh OASL (11726364_x_at) / RFU SOX15 (11748057_x_at) / Fold change /veh SOX15 (11748057_x_at) / RFU CD79A (11719716_a_at) / Fold change /veh CD79A (11719716_a_at) / RFU HIST1H1D (11736915_at) / Fold change /veh HIST1H1D (11736915_at) / RFU CASKIN2 (11723855_a_at) / Fold change /veh CASKIN2 (11723855_a_at) / RFU LOC730098 (11760151_x_at) / Fold change /veh LOC730098 (11760151_x_at) / RFU OR4N2 (11742367_at) / Fold change /veh OR4N2 (11742367_at) / RFU PRRT2 (11749266_a_at) / Fold change /veh PRRT2 (11749266_a_at) / RFU SNX32 (11753110_a_at) / Fold change /veh SNX32 (11753110_a_at) / RFU CDHR5 (11726645_a_at) / Fold change /veh CDHR5 (11726645_a_at) / RFU RCAN1 (11760418_a_at) / Fold change /veh RCAN1 (11760418_a_at) / RFU FAM167A (11723789_a_at) / Fold change /veh FAM167A (11723789_a_at) / RFU FAM26E (11764081_at) / Fold change /veh FAM26E (11764081_at) / RFU ISYNA1 (11749810_s_at) / Fold change /veh ISYNA1 (11749810_s_at) / RFU ACY1 (11761880_at) / Fold change /veh ACY1 (11761880_at) / RFU 11764098_at / Fold change /veh 11764098_at / RFU SAMD14 (11745864_x_at) / Fold change /veh SAMD14 (11745864_x_at) / RFU NPB (11741838_a_at) / Fold change /veh NPB (11741838_a_at) / RFU TMPRSS6 (11731388_a_at) / Fold change /veh TMPRSS6 (11731388_a_at) / RFU KRTAP10-2 (11738614_at) / Fold change /veh KRTAP10-2 (11738614_at) / RFU ARHGAP8 /// PRR5-ARHGAP8 (11727945_x_at) / Fold change /veh ARHGAP8 /// PRR5-ARHGAP8 (11727945_x_at) / RFU KRTAP5-7 /// NADSYN1 (11734609_at) / Fold change /veh KRTAP5-7 /// NADSYN1 (11734609_at) / RFU RASL12 (11751679_a_at) / Fold change /veh RASL12 (11751679_a_at) / RFU CDKN2B (11736163_a_at) / Fold change /veh CDKN2B (11736163_a_at) / RFU PRF1 (11729649_at) / Fold change /veh PRF1 (11729649_at) / RFU, ZNF638 /// ZNF638-IT1 / Fold change vs veh, ZNF638 /// ZNF638-IT1 / RFU, PANK3 / Fold change vs veh, PANK3 / RFU, SH3YL1 / Fold change vs veh, SH3YL1 / RFU, ZEB2 / Fold change vs veh, ZEB2 / RFU, NRIP1 / Fold change vs veh, NRIP1 / RFU, PTTG1IP / Fold change vs veh, PTTG1IP / RFU, CAPN2 / Fold change vs veh, CAPN2 / RFU, MED14 / Fold change vs veh, MED14 / RFU, SNORA58 / Fold change vs veh, SNORA58 / RFU, C1orf63 / Fold change vs veh, C1orf63 / RFU, LRRFIP1 / Fold change vs veh, LRRFIP1 / RFU, NDUFAF7 / Fold change vs veh, NDUFAF7 / RFU, SLC12A2 / Fold change vs veh, SLC12A2 / RFU, IBTK / Fold change vs veh, IBTK / RFU, ESF1 / Fold change vs veh, ESF1 / Fold change vs veh, TMEM50B / RFU, TAOK1 / Fold change vs veh, TAOK1 / RFU, ACBD3 / Fold change vs veh, ACBD3 / RFU, TMA16 / Fold change vs veh, TMA16 / RFU, RWDD3 / Fold change vs veh, RWDD3 / RFU, BCAT1 / Fold change vs veh, BCAT1 / RFU, EDEM3 / Fold change vs veh, EDEM3 / RFU, TMEM33 / Fold change vs veh, TMEM33 / RFU, WDR75 / Fold change vs veh, WDR75 / RFU, AHCTF1 / Fold change vs veh, AHCTF1 / RFU, TFRC / Fold change vs veh, TFRC / RFU, ZDHHC17 / Fold change vs veh, ZDHHC17 / RFU, NOM1 / Fold change vs veh, NOM1 / RFU, ARL8B / Fold change vs veh, ARL8B / RFU, ZBTB11 / Fold change vs veh, ZBTB11 / RFU, TAMM41 / Fold change vs veh, TAMM41 / RFU, KIAA1704 /// LOC100996395 / Fold change vs veh, KIAA1704 /// LOC100996395 / RFU, ING1 / Fold change vs veh, ING1 / RFU, TRMT61B / Fold change vs veh, TRMT61B / RFU, FUBP3 / Fold change vs veh, FUBP3 / RFU, TP53 / Fold change vs veh, TP53 / RFU, TNKS2 / Fold change vs veh, TNKS2 / RFU, ZFP14 / Fold change vs veh, ZFP14 / RFU, ACTR2 / Fold change vs veh, ACTR2 / RFU, PPP3R1 / Fold change vs veh, PPP3R1 / RFU, PIK3R1 / Fold change vs veh, PIK3R1 / RFU, HNRNPA1 / Fold change vs veh, HNRNPA1 / RFU, RNF170 / Fold change vs veh, RNF170 / RFU, ZNF28 / Fold change vs veh, ZNF28 / RFU, RNGTT / Fold change vs veh, RNGTT / RFU, OGT / Fold change vs veh, OGT / RFU, BRD1 / Fold change vs veh, BRD1 / RFU, MARS / Fold change vs veh, MARS / RFU, ZNF655 / Fold change vs veh, ZNF655 / RFU, FAHD1 / Fold change vs veh, FAHD1 / RFU, BDP1 / Fold change vs veh, BDP1 / RFU, LRRCC1 / Fold change vs veh, LRRCC1 / RFU, ARID1A / Fold change vs veh, ARID1A / RFU, ZNF146 / Fold change vs veh, ZNF146 / RFU, ZNF330 / Fold change vs veh, ZNF330 / RFU, GPN3 / Fold change vs veh, GPN3 / RFU, C9orf123 / Fold change vs veh, C9orf123 / RFU, N4BP2L2 / Fold change vs veh, N4BP2L2 / RFU, ARFIP1 / Fold change vs veh, ARFIP1 / RFU, FAM179B / Fold change vs veh, FAM179B / RFU, BCL10 / Fold change vs veh, BCL10 / RFU, UHRF1BP1L / Fold change vs veh, UHRF1BP1L / RFU, BET1 / Fold change vs veh, BET1 / RFU, CNOT2 / Fold change vs veh, CNOT2 / RFU, ZNF268 / Fold change vs veh, ZNF268 / Fold change vs veh, ZNF507 / RFU, DGCR2 / Fold change vs veh, DGCR2 / RFU, WDSUB1 / Fold change vs veh, WDSUB1 / Fold change vs veh, HSP90B1 /// MIR3652 / RFU, ADSS / Fold change vs veh, ADSS / RFU, GK / Fold change vs veh, GK / RFU, ZNF148 / Fold change vs veh, ZNF148 / RFU, TAF9 / Fold change vs veh, TAF9 / RFU, SLC1A5 / Fold change vs veh, SLC1A5 / RFU, SLMO2 / Fold change vs veh, SLMO2 / RFU, ABCC4 / Fold change vs veh, ABCC4 / RFU, LOC101060439 /// RAP1B / Fold change vs veh, LOC101060439 /// RAP1B / RFU, RFX7 / Fold change vs veh, RFX7 / RFU, GTPBP10 / Fold change vs veh, GTPBP10 / RFU, CNEP1R1 / Fold change vs veh, CNEP1R1 / RFU, BIVM-ERCC5 /// ERCC5 / Fold change vs veh, BIVM-ERCC5 /// ERCC5 / RFU, ILF3 / Fold change vs veh, ILF3 / RFU 11762660_at / Fold change /veh 11762660_at / RFU VCAN (11757783_s_at) / Fold change /veh VCAN (11757783_s_at) / RFU DDX43 (11728927_at) / Fold change /veh DDX43 (11728927_at) / RFU KRT8 (11758188_x_at) / Fold change /veh KRT8 (11758188_x_at) / RFU NKD1 (11759106_at) / Fold change /veh NKD1 (11759106_at) / RFU SRD5A1 (11742802_a_at) / Fold change /veh SRD5A1 (11742802_a_at) / RFU TPSAB1 /// TPSB2 (11721975_s_at) / Fold change /veh TPSAB1 /// TPSB2 (11721975_s_at) / RFU GSTM3 (11746129_a_at) / Fold change /veh GSTM3 (11746129_a_at) / RFU IL23R (11737362_x_at) / Fold change /veh IL23R (11737362_x_at) / RFU TMEM51 (11727254_a_at) / Fold change /veh TMEM51 (11727254_a_at) / RFU PIWIL2 (11732686_x_at) / Fold change /veh PIWIL2 (11732686_x_at) / RFU ORM1 (11744905_x_at) / Fold change /veh ORM1 (11744905_x_at) / RFU CCDC152 (11743942_at) / Fold change /veh CCDC152 (11743942_at) / RFU ECM1 (11717891_a_at) / Fold change /veh ECM1 (11717891_a_at) / RFU IL23R (11748794_a_at) / Fold change /veh IL23R (11748794_a_at) / RFU TNFAIP8L3 (11732012_x_at) / Fold change /veh TNFAIP8L3 (11732012_x_at) / RFU MBOAT4 (11741988_at) / Fold change /veh MBOAT4 (11741988_at) / RFU 11764193_at / Fold change /veh 11764193_at / RFU TMEM53 (11763286_at) / Fold change /veh TMEM53 (11763286_at) / RFU MAGEB2 (11727129_at) / Fold change /veh MAGEB2 (11727129_at) / RFU TMEM200A (11744735_a_at) / Fold change /veh TMEM200A (11744735_a_at) / RFU CCDC152 (11751479_a_at) / Fold change /veh CCDC152 (11751479_a_at) / RFU FAM211A (11726209_a_at) / Fold change /veh FAM211A (11726209_a_at) / RFU RGS16 (11746705_a_at) / Fold change /veh RGS16 (11746705_a_at) / RFU VCAN (11755009_s_at) / Fold change /veh VCAN (11755009_s_at) / RFU RHOB (11743442_s_at) / Fold change /veh RHOB (11743442_s_at) / RFU RGS16 (11720943_a_at) / Fold change /veh RGS16 (11720943_a_at) / RFU RGS16 (11720944_at) / Fold change /veh RGS16 (11720944_at) / RFU, VPS4B / Fold change vs veh, VPS4B / RFU, CREB1 / Fold change vs veh, CREB1 / RFU, DNAJC13 / Fold change vs veh, DNAJC13 / RFU, GNAQ / Fold change vs veh, GNAQ / RFU, CDK5R1 / Fold change vs veh, CDK5R1 / RFU, ZRANB3 / Fold change vs veh, ZRANB3 / RFU, CUL4A / Fold change vs veh, CUL4A / RFU, CCNY / Fold change vs veh, CCNY / RFU, UFL1 / Fold change vs veh, UFL1 / RFU, COG3 / Fold change vs veh, COG3 / RFU, DIAPH2 / Fold change vs veh, DIAPH2 / RFU, SKA2 / Fold change vs veh, SKA2 / RFU, AFF3 / Fold change vs veh, AFF3 / RFU, LMF1 / Fold change vs veh, LMF1 / RFU, IPO11 / Fold change vs veh, IPO11 / RFU, DFFB / Fold change vs veh, DFFB / RFU, FOXP1 / Fold change vs veh, FOXP1 / RFU, CARD8 / Fold change vs veh, CARD8 / RFU, STRN3 / Fold change vs veh, STRN3 / RFU, ADK / Fold change vs veh, ADK / RFU, RASSF2 / Fold change vs veh, RASSF2 / RFU, WIPF1 / Fold change vs veh, WIPF1 / RFU, LARP1B / Fold change vs veh, LARP1B / RFU, RASA1 / Fold change vs veh, RASA1 / RFU, RB1 / Fold change vs veh, RB1 / RFU, PPFIA1 / Fold change vs veh, PPFIA1 / RFU, MAT2A / Fold change vs veh, MAT2A / RFU, CCT5 / Fold change vs veh, CCT5 / RFU, WDR92 / Fold change vs veh, WDR92 / RFU, CUX1 / Fold change vs veh, CUX1 / RFU, TTC7A / Fold change vs veh, TTC7A / RFU, TMEM135 / Fold change vs veh, TMEM135 / RFU, DEPTOR / Fold change vs veh, DEPTOR / RFU, CPM / Fold change vs veh, CPM / RFU, DNAJB6 / Fold change vs veh, DNAJB6 / RFU, CACNA2D3 / Fold change vs veh, CACNA2D3 / RFU, DTX4 / Fold change vs veh, DTX4 / RFU, TFCP2 / Fold change vs veh, TFCP2 / RFU, GMCL1 /// GMCL1P1 / Fold change vs veh, GMCL1 /// GMCL1P1 / RFU, AEBP2 / Fold change vs veh, AEBP2 / RFU, SNHG1 /// SNORD22 /// SNORD25 /// SNORD26 /// SNORD27 /// SNORD28 /// SNORD29 /// SNORD31 / Fold change vs veh, SNHG1 /// SNORD22 /// SNORD25 /// SNORD26 /// SNORD27 /// SNORD28 /// SNORD29 /// SNORD31 / Fold change (Aza/veh), C12orf56 (ProbeSet 11735607_a_at) / Fold change (ACY-1035/veh), C12orf56 (ProbeSet 11735607_a_at) / Fold change (Aza/veh), FGFR1OP (ProbeSet 11751329_s_at) / Fold change (ACY-1035/veh), FGFR1OP (ProbeSet 11751329_s_at) / Fold change (Aza/veh), VPS36 (ProbeSet 11739960_a_at) / Fold change (ACY-1035/veh), VPS36 (ProbeSet 11739960_a_at) / RFU SYPL1 (11715823_x_at) / Fold change /veh SYPL1 (11715823_x_at) / RFU IGFBP7 (11715501_s_at) / Fold change /veh IGFBP7 (11715501_s_at) / RFU REEP3 (11722064_at) / Fold change /veh REEP3 (11722064_at) / RFU IGLL1 (11728026_x_at) / Fold change /veh IGLL1 (11728026_x_at): dose or concentration left out as unconfirmed
Conditions: ProbeSet 11755070_a_at; LIST D

Nc1ncn([C@@H]2O[C@H](CO)[C@@H](O)[C@H]2O)c(=O)n1 [azacitidine]
RFU, CARD8: 161.67 RFU
